The test system of this assay is fEPSP of CA1 area of mouse hippocampal slice. Kind of assay: Electrophysiological recording of fEPSP in hippocampal slices. Conditions: AM-251 2 µM; JWH-175 and JWH-018 both at 1 µM; data not shown. Format: cell-based. How it is done: Procedures for tissue preparation are the same as those described by Ossato et al., 2016 [45]. In brief, after mouse decapitation, the head was immediately chilled in refrigerated artificial cerebrospinal fluid (aCSF, 0 °C) of the following composition (in mM): NaCl, 126; KCl, 2; KH2PO4, 1.25; NaHCO3, 26; MgSO4, 2.0; CaCl2, 2.5; d-glucose, 10. After 1 min, the brain was extracted to isolate the hippocampus and then placed in ice-cold artificial cerebrospinal fluid (aCSF). All solutions were saturated with 95% O2/5% CO2. Transverse hippocampal slices (425 μm thick) were cut with a tissue chopper and then placed for almost 90 min in a Haas-style incubation chamber for recovery before recording.
A single slice was transferred into a submerged-type recording chamber (3 mL total volume) and continuously superfused (3.0 mL/min) with warmed (32–33 °C) aCSF. WINLTP 2.10 computer software was used for stimulus triggering, PC recording, and analysis. Synaptic responses of CA1 pyramidal neurons were elicited by electrical stimulation of the Schaffer collateral/commissural pathway. Single stimulation pulses (80 µs duration; 0.05 Hz) were delivered by mean of a concentric bipolar electrode (o.d. 125 μm, FHC, USA) connected to a Grass S11 stimulator driving a PSIU6 constant current stimulus isolation unit. To record the fEPSPs, borosilicate glass electrodes fabricated using a microelectrode puller (P97, Sutter Instruments) and filled with aCSF (1.5 ± 0.5 MΩ), inserted in the distal third of the stratum radiatum and 200–300 µm away from stimulating electrodes, were used. The maximal fEPSPs response was reached by adjusting the recording electrode depth. Recorded potentials were amplified (Axoprobe 1A DC-coupled—Cyberamp 320, Molecular Devices, Sunnyvale, CA, USA) and filtered (5.0 kHz) prior to A/D conversion. Upon 10 min of stable synaptic response, a stimulus–response curve (SRC) was generated as previously described to extrapolate a stimulation intensity evoking 70% of maximal fEPSP, to be used throughout the experiment. […] To investigate whether the vehicle had any effect on synaptic activity, the superfusion inlet was switched to a reservoir containing aCSF plus the amount of vehicle present for the corresponding drug concentration (sham application), before switching to the solution also including the drug, for comparison. All reservoirs and tubing were on glass or Teflon to avoid the capturing of cannabinoids by plastic or silicon parts.
We analyzed data from in vitro recordings as previously described. […] Effect of treatment was considered steady state when stable +/− 5% for 10 min.

SMILES strings stand for the structures.

For the compound `Cc1c(C(=O)NN2CCCCC2)nn(-c2ccc(Cl)cc2Cl)c1-c1ccc(I)cc1` [AM-251, 1-(2,4-dichlorophenyl)-5-(4-iodophenyl)-4-methyl-N-1-piperidinyl-1H-pyrazole-3-carboxamide], the “effect of AM-251 perfusion on the inhibitory effect of JWH-175 and JWH-018 on fEPSP” value is on record as “completely prevented”.

The values are drawn from publication PMC9318133 (International Journal of Molecular Sciences, 2022).
